Holding throughout (experiment): Qualitative dye staining on agarose pads (EVOS M7000)
Holding throughout (assay type): cell-based
What all share (design): key to Relative fluorescent intensity: Very high: If the cells looked twice as big in the fluorescent channel, it was marked as having “very high” relative fluorescent intensity; High: if the cells looked bigger in the fluorescent channel, it was marked as having “high” relative fluorescent intensity; Medium: If the cells looked almost the same size in the fluorescent channel and the bright field, it was marked as having “medium” relative fluorescent intensity; Low: If the cells looked smaller in the fluorescent channel as compared to the brightfield but still the whole cell was visible, it was marked as having “low” relative fluorescent intensity; Negligible: If only a few traces of a cell was visible in the fluorescent channel, it was marked as having “negligible” relative fluorescent intensity

The subject of one assay is Proteus mirabilis. The following applies: DiSC3(5) 3 μM, SYBR Green I 10×, SYTO 13 3 μM, FM4-64 15 μM.
Assay [1] deals with Staphylococcus saprophyticus. The settings on record: DiSC3(5) 3 μM, SYBR Green I 10×, SYTO 13 3 μM, FM4-64 15 μM.
In a further assay the test system is Proteus. The following applies: Table 6 thresholds, DiSC3(5) 3 μM, SYBR Green I 10×, SYTO 13 3 μM, FM4-64 15 μM.
Setting [2] is: Table 7 commercial strain Proteus mirabilis NCTC 10975.
Where [3] appears, read: Table 7 commercial strain Proteus mirabilis NCTC 11938.
The mark [4] stands for this setting: Table 8 sample Proteus mirabilis (021).
Setting [5] is: Table 8 sample Proteus mirabilis (022).
[6] abbreviates: Table 8 sample Proteus mirabilis (023).
The mark [7] stands for this setting: Table 6 thresholds, Staphylococcus saprophyticus.
The mark [8] stands for this setting: Table 7 commercial strain S. saprophyticus NCTC 13634.
Setting [9] is: Table 8 sample Staphylococcus saprophyticus (047).
Where [10] appears, read: Table 8 sample Staphylococcus saprophyticus (048).
[11] abbreviates: Table 8 sample Staphylococcus saprophyticus (049).

SMILES strings stand for the structures.

The values that follow come from patent US20250052744A1, “Dyes and Uses Thereof” (The University of Liverpool, priority 2021, published 2025).

For the molecule `CCCN(CCCN(C)C)c1cc(/C=C2/Sc3ccccc3N2C)c2ccccc2[n+]1-c1ccccc1` [SYBR Green I, N′,N′-dimethyl-N-[4-[(E)-(3-methyl-1,3-benzothiazol-2-ylidene)methyl]-1-phenylquinolin-1-ium-2-yl]-N-propylpropane-1,3-diamine], the “Percentage of cells stained” value is on record as “Half” in the assay with Proteus mirabilis (setting [2]); “Half” in the assay with Proteus mirabilis (setting [3]); “Half” with Proteus mirabilis (setting [4]); “Half” in the assay on Proteus mirabilis (setting [5]); “Half” in the assay on Proteus mirabilis (setting [6]); “Almost all” in assay [1] (setting [7]). For the same molecule, the “Percentage of cells stained” value in assay [1] (setting [8]) is “Almost all”; in assay [1] (setting [9]), “Almost all”; in assay [1] (setting [10]), “Almost all”; in assay [1] (setting [11]) it was “Almost all”; with Proteus, “Half”. The Relative fluorescent intensity entry in the assay on Proteus mirabilis (setting [2]) is recorded as “Low”; in the assay with Proteus mirabilis (setting [3]), “Low”; in the assay with Proteus mirabilis (setting [4]) it was “Low”; in the assay on Proteus mirabilis (setting [5]), “Low”; in the assay on Proteus mirabilis (setting [6]), “Low”; in assay [1] (setting [7]), “High”. The Relative fluorescent intensity result is on record as “High” in assay [1] (setting [8]); “High” in assay [1] (setting [9]); “High” in assay [1] (setting [10]); “High” in assay [1] (setting [11]); “Low” in the assay with Proteus.
For `CCN(CC)c1ccc(C=CC=CC=Cc2cc[n+](CCC[N+](CC)(CC)CC)cc2)cc1.[Br-].[Br-]` [FM 4-64, N-(3-Triethylammoniumpropyl)-4-(6-(4-(Diethylamino) Phenyl) Hexatrienyl) Pyridinium Dibromide], the “Percentage of cells stained” value is reported as “Few” in the assay on Proteus mirabilis (setting [2]); “Few” with Proteus mirabilis (setting [3]); “Few” in the assay on Proteus mirabilis (setting [4]); “Few” with Proteus mirabilis (setting [5]); “Few” in the assay on Proteus mirabilis (setting [6]); “Almost all” in assay [1] (setting [7]). In addition, the “Percentage of cells stained” value in assay [1] (setting [8]) is “Almost all”; in assay [1] (setting [9]) it was “Almost all”; in assay [1] (setting [10]) it was “Almost all”; in assay [1] (setting [11]), “Almost all”; in the assay on Proteus, “Few”. In addition, the Relative fluorescent intensity entry in the assay on Proteus mirabilis (setting [2]) is given as “Negligible”; in the assay on Proteus mirabilis (setting [3]) it was “Negligible”; in the assay with Proteus mirabilis (setting [4]), “Negligible”; in the assay with Proteus mirabilis (setting [5]) it was “Negligible”; with Proteus mirabilis (setting [6]), “Negligible”; in assay [1] (setting [7]), “High”. Besides, the Relative fluorescent intensity result is listed as “High” in assay [1] (setting [8]); “High” in assay [1] (setting [9]); “High” in assay [1] (setting [10]); “High” in assay [1] (setting [11]); “no staining or negligible” in the assay with Proteus; “Negligible” in the assay with Proteus (listed as FM4-64).
As for `CCCN1C(=CC=CC=Cc2sc3ccccc3[n+]2CCC)Sc2ccccc21.[I-]` [DiSC3(5), 3,3′-Dipropylthiadicarbocyanine Iodide], the “Percentage of cells stained” value (in the assay with Proteus mirabilis (setting [2]); in the assay with Proteus mirabilis (setting [3]); in the assay on Proteus mirabilis (setting [4]); in the assay with Proteus mirabilis (setting [5]); in the assay on Proteus mirabilis (setting [6]); in assay [1] (setting [7])) was “Almost all” in each case. Also, the “Percentage of cells stained” value was “Almost all” in assay [1] (setting [8]); “Almost all” in assay [1] (setting [9]); “Almost all” in assay [1] (setting [10]); “Almost all” in assay [1] (setting [11]); “Half” in the assay with Proteus. In addition, the Relative fluorescent intensity entry in the assay on Proteus mirabilis (setting [2]) was “Medium”; with Proteus mirabilis (setting [3]), “Low”; in the assay with Proteus mirabilis (setting [4]) it was “Low”; in the assay on Proteus mirabilis (setting [5]), “Medium”; in the assay with Proteus mirabilis (setting [6]), “Medium”; in assay [1] (setting [7]), “high and High”. The Relative fluorescent intensity entry is recorded as “High” in assay [1] (setting [8]); “High” in assay [1] (setting [9]); “High” in assay [1] (setting [10]); “High” in assay [1] (setting [11]); “Low-Medium” in the assay with Proteus.
